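Results reflect a 48-hour exposure of cells in 96-well plates to compound at five concentrations. At the GI50, growth is halved.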 Active and inactive are the calls of the source. No stated cut-off is given here; in the data, active = GI50 up to about 1.1 µM and inactive = higher.
Key:
Test in all cases: DTP human tumour cell line panel, 48 h
[1] = test system: 786-0
[2] = test system: A498
[3] = test system: A549
[4] = test system: ACHN
[5] = test system: CAKI-1
[6] = test system: CCRF-CEM
[7] = test system: COLO 205
[8] = test system: DLD-1
[9] = test system: DMS-114
[10] = test system: DMS-273
[11] = test system: EKVX
[12] = test system: HCC 2998
[13] = test system: HCT-116
[14] = test system: HCT-15
[15] = test system: HL-60
[16] = test system: HOP-18
[17] = test system: HOP-62
[18] = test system: HT-29
[19] = test system: IGROV-1
[20] = test system: K562
[21] = test system: KM-20L2
[22] = test system: KM12
[23] = test system: LXFL 529
[24] = test system: M14
[25] = test system: M19-MEL
[26] = test system: MOLT-4
[27] = test system: Malme-3M
[28] = test system: NCI-H23
[29] = test system: NCI-H460
[30] = test system: NCI-H522
[31] = test system: OVCAR-3
[32] = test system: OVCAR-4
[33] = test system: OVCAR-8
[34] = test system: RPMI-8226
[35] = test system: RXF 393
[36] = test system: SF-268
[37] = test system: SF-295
[38] = test system: SF-539
[39] = test system: SK-MEL-28
[40] = test system: SK-MEL-2
[41] = test system: SK-MEL-5
[42] = test system: SK-OV-3
[43] = test system: SN12C
[44] = test system: SNB-19
[45] = test system: SNB-75
[46] = test system: SNB-78
[47] = test system: SW-620
[48] = test system: TK-10
[49] = test system: U-251
[50] = test system: UACC-257
[51] = test system: UACC-62
[52] = test system: UO-31
[53] = test system: XF498
[54] = test system: HOP-92
[55] = test system: LOX IMVI
[56] = test system: SR
[57] = test system: NCI-H226
[58] = test system: OVCAR-5
[59] = test system: MCF7
[60] = test system: NCI/ADR-RES

Measured: GI50

O=C1Nc2ccccc2C12CCCC2
inactive: [1] > 100 µM | [2] > 100 µM | [3] > 100 µM | [4] > 100 µM | [5] > 100 µM | [6] > 100 µM | [7] > 100 µM | [8] > 100 µM | [9] > 100 µM | [10] > 100 µM | [11] 72.3 µM | [12] > 100 µM | [13] > 100 µM | [15] > 100 µM | [16] > 100 µM | [17] > 100 µM | [18] > 100 µM | [19] > 100 µM | [20] > 100 µM | [21] > 100 µM | [22] > 100 µM | [23] > 100 µM | [24] > 100 µM | [25] > 100 µM | [26] > 100 µM | [27] > 100 µM | [28] > 100 µM | [29] > 100 µM | [30] > 100 µM | [31] > 100 µM | [32] > 100 µM | [33] > 100 µM | [34] > 100 µM | [35] > 100 µM | [36] > 100 µM | [37] > 100 µM | [38] 4.24 µM | [39] > 100 µM | [40] > 100 µM | [41] > 100 µM | [42] > 100 µM | [43] > 100 µM | [44] > 100 µM | [45] 54.6 µM | [46] > 100 µM | [47] > 100 µM | [48] > 100 µM | [49] > 100 µM | [50] > 100 µM | [51] > 100 µM | [52] > 100 µM | [53] > 100 µM
> 100 µM: [14]

CC(=O)OCC1OC(n2cc(F)c(=O)[nH]c2=O)C(NC(=O)N(CCCl)N=O)C(OC(C)=O)C1OC(C)=O (centres undefined)
inactive: [1] 54.2 µM | [2] > 100 µM | [3] 89.7 µM | [4] > 100 µM | [5] > 100 µM | [6] > 100 µM | [7] > 100 µM | [8] > 100 µM | [9] 81.3 µM | [10] > 100 µM | [13] > 100 µM | [15] 51.5 µM | [16] > 100 µM | [17] > 100 µM | [54] > 100 µM | [18] > 100 µM | [19] > 100 µM | [20] > 100 µM | [21] > 100 µM | [22] > 100 µM | [55] 43.3 µM | [23] > 100 µM | [24] > 100 µM | [25] > 100 µM | [26] 87.1 µM | [27] > 100 µM | [28] > 100 µM | [29] 18.7 µM | [30] > 100 µM | [31] > 100 µM | [32] > 100 µM | [33] > 100 µM | [34] > 100 µM | [36] 17.3 µM | [37] 43.1 µM | [38] 29.3 µM | [39] > 100 µM | [41] > 100 µM | [42] > 100 µM | [43] > 100 µM | [44] > 100 µM | [45] 16.6 µM | [46] > 100 µM | [56] 97.9 µM | [47] > 100 µM | [48] > 100 µM | [49] 88.9 µM | [50] > 100 µM | [51] 23.2 µM | [52] > 100 µM | [53] 36.4 µM

NC1=NN(c2ccccc2)C(=O)C1/C(=N\NC(=O)c1cc2ccccc2cc1O)C(=O)Nc1ccc(Cl)c(Cl)c1 (centres undefined)
13.6 µM: [14]
inactive: [1] 31.3 µM | [2] 49.8 µM | [3] 42.8 µM | [4] 28.3 µM | [5] 54.5 µM | [6] 10.1 µM | [7] 18.9 µM | [8] 30.5 µM | [9] 25.2 µM | [10] 11.6 µM | [11] 14.4 µM | [12] 43 µM | [13] 35.2 µM | [15] 5.13 µM | [16] 31.6 µM | [17] 65.2 µM | [54] 32.7 µM | [18] 59.2 µM | [19] 28.4 µM | [20] 28.4 µM | [21] 32.5 µM | [22] 43.6 µM | [55] 24.5 µM | [23] 34.4 µM | [24] 19.6 µM | [26] 22.9 µM | [27] 33 µM | [57] 64.9 µM | [28] 28.9 µM | [29] 31.3 µM | [30] 16.5 µM | [31] 5.57 µM | [32] 16.3 µM | [58] 44.6 µM | [33] 17.3 µM | [34] 26 µM | [35] 49.2 µM | [36] 22.9 µM | [37] 35.8 µM | [38] 30.9 µM | [39] 83.4 µM | [40] 55.7 µM | [41] 29.5 µM | [43] 35.6 µM | [44] 25.4 µM | [45] 31.2 µM | [46] 23.8 µM | [47] 33.1 µM | [48] 55.6 µM | [49] 33 µM | [50] 29.7 µM | [51] 17.7 µM | [52] 17.6 µM | [53] 25.1 µM
active: [56] 0.0612 µM

CC(=O)Oc1cc2c(cc1OC(C)=O)OCC(c1ccccc1)C2 (centres undefined)
inactive: [2] 7.05 µM | [3] 13 µM | [5] 16.4 µM | [6] 4.4 µM | [7] 18.1 µM | [8] 9.31 µM | [9] 6.81 µM | [10] 34.2 µM | [11] 28.3 µM | [12] 29.1 µM | [13] 27.6 µM | [15] 3.5 µM | [16] 29.9 µM | [17] 19.1 µM | [54] 9.23 µM | [18] 43.5 µM | [19] 33.8 µM | [20] 12.1 µM | [21] 34.7 µM | [22] 25.8 µM | [55] 13.5 µM | [25] 14.9 µM | [59] 32.5 µM | [26] 5.85 µM | [27] 16.1 µM | [57] 22.2 µM | [28] 32.2 µM | [29] 20.7 µM | [30] 2.4 µM | [60] 31.3 µM | [31] 22.6 µM | [32] 24 µM | [58] 33.3 µM | [33] 16.9 µM | [34] 8.39 µM | [35] 14.4 µM | [36] 14.7 µM | [37] 16.4 µM | [38] 25.7 µM | [39] 31 µM | [40] 27.4 µM | [41] 17.3 µM | [42] 40.7 µM | [43] 26.4 µM | [44] 15 µM | [45] 8.18 µM | [46] 39.2 µM | [47] 6.5 µM | [49] 7.6 µM | [50] 14.1 µM | [51] 19.2 µM | [52] 30.2 µM | [53] 12.4 µM
13 µM: [14]

Reference: ChEMBL document CHEMBL1201862, “PubChem BioAssay data set” (2004)
